Experimental data reported in publication PMC8915595, “Revisiting the application of Immobilized Artificial Membrane (IAM) chromatography to estimate in vivo distribution properties of drug discovery compounds based on the model of marketed drugs” (ADMET & DMPK, 2020).

Legend:
[1] = target: T1, human serum albumin (HSA) (Homo sapiens, UniProt P02768); assay: Protein binding on chemically bonded HSA column (Chiralpak-HSA); conditions: remeasured in this study, pH 7.4
Protocol: Mobile phase A was 50 mM ammonium acetate adjusted to pH 7.4 and mobile phase B was 2-propanol. The flow rate was 1.5 mL/min and the run time was 6 min. The 2-propanol gradient was applied from 0 to 35% from 0 to 3.00 min and kept at 35% until 4.00 min.

[2] = target: T1, human serum albumin (HSA); conditions: cited from earlier work
[3] = human
[4] = reference CHI (IAM), old columns; cited from earlier work
[5] = IAM chromatography on new IAM.PC.DD2 columns (gradient HPLC, CHI (IAM)); assay type: physicochemical; design: key to CHI (IAM) “new” / P20511-014-3 CHI (IAM): CHI (IAM) from retention times calibrated to predefined CHI standards; conditions: for P20511-014-3 CHI (IAM): new IAM.PC.DD2 column batch P20511-014-3, pH 7.4; for R20511-014-3 CHI (IAM): new IAM.PC.DD2 column batch R20511-014-3, pH 7.4; for CHI (IAM) deviation between reference and new IAM.PC.DD2 columns / CHI (IAM) “new”: system suitability test compounds; for CHI (IAM) “new”: new IAM.PC.DD2 columns, pH 7.4
Protocol: The IAM binding was measured using IAM.PC.DD2 HPLC columns (Regis Technologies, Inc., IL, USA) with dimensions of 100 x 4.6 mm, particle size 10 μm with 300 Å pore size.
Two batches of IAM.PC.DD2 columns were studied (R20511-014-3 and P20511-014-3) that had been prepared using the new batches of silica support.
The retention times were standardized using the IAM calibration mixture, containing octanophenone, heptanophenone, hexanophenone, valerophenone, butyrophenone, propiophenone, acetophenone, acetanilide and paracetamol. The retention times of the compounds were plotted against the isocratically determined and predefined CHI (IAM) values listed in Table 1. The slope and intercept of the obtained straight line was used to calculate the CHI IAM values of new compounds.

T1 sequence (P02768 25-609): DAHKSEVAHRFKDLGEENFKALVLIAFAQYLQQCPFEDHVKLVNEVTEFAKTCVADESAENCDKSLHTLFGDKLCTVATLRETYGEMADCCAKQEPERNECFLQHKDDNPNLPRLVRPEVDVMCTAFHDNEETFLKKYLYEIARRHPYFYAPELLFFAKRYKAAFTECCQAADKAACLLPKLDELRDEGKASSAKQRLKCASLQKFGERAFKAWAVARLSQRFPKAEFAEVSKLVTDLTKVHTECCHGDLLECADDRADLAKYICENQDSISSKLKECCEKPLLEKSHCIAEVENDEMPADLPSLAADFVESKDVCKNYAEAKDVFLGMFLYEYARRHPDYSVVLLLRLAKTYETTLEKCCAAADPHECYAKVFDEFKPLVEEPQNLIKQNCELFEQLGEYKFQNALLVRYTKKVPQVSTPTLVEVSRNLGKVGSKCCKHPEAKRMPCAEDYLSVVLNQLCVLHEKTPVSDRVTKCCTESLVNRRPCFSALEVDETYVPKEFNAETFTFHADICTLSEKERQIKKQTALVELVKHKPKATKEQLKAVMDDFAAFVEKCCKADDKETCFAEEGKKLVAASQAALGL

Structure (SMILES)	log K HSA [1]	log K HSA from ref [13] [2]	reference log Vdss [3]	CHI (IAM) from ref [13] [4]	P20511-014-3 CHI (IAM) [5]	R20511-014-3 CHI (IAM) [5]	CHI (IAM) deviation between reference and new IAM.PC.DD2 columns [5]	CHI (IAM) “new” [5]	outlier in correlation of reference CHI (IAM) with CHI (IAM) on column R20511-014-3 ([5]; lower CHI (IAM) on new batches, outlier if difference greater than 7.2 CHI IAM units)
C=CCOc1ccc(CC(=O)O)cc1Cl [Alclofenac]	5.40	5.11	-1.1	17.80	21.63	20.47			
NC(=O)N1c2ccccc2C=Cc2ccccc21 [Carbamazepine]	1.81	1.99	-0.09	26.50	27.07	27.18	very similar	27.0	
CN(C)CCCN1c2ccccc2Sc2ccc(Cl)cc21 [Chlorpromazine]	1.27	1.18	2.15		50.94	51.54	> 5 CHI (IAM) unit	54.0	
CCn1nc(C(=O)O)c(=O)c2cc3c(cc21)OCO3 [Cinoxacin]	0.91	0.79	-0.42		6.67	5.31			
CC1=NS(=O)(=O)c2cc(Cl)ccc2N1 [Diazoxide]	5.58	5.42	-0.16	24.70	23.44	23.39			
C#C[C@]1(O)CC[C@H]2[C@@H]3CCc4cc(O)ccc4[C@H]3CC[C@@]21C [Ethinyl estradiol]	0.50	0.46	0.39	46.80	45.23	45.30			
NC(N)=Nc1nc(CSCCC(N)=NS(N)(=O)=O)cs1 [Famotidine]	3.43	1.39	-0.06	15.70	16.08	16.82			
CC(C(=O)O)c1cccc(Oc2ccccc2)c1 (centres unmarked) [Fenoprofen]	2.32	1.58	-1.27	17.20	28.26	27.17			
CC(C)(C)NC(=O)[C@H]1CC[C@H]2[C@@H]3CC[C@H]4NC(=O)C=C[C@]4(C)[C@H]3CC[C@]12C [Finasteride]	3.55	3.62	0.3		37.17	37.15			
Cc1onc(-c2c(F)cccc2Cl)c1C(=O)N[C@@H]1C(=O)N2[C@@H]1SC(C)(C)[C@@H]2C(=O)O [Floxacillin]	0.65	0.56	-0.56	23.40	24.59	23.76			
CC(C(=O)O)c1ccc(-c2ccccc2)c(F)c1 (centres unmarked) [Flurbiprofen]	4.01	1.26	-1.56	26.80	30.89	30.23			
Cc1ccc(C)c(OCCCC(C)(C)C(=O)O)c1 [Gemfibrozil]	4.05	3.32	-1.34	32.90	34.53	33.70			
COC1=CC(=O)C[C@@H](C)[C@]12Oc1c(Cl)c(OC)cc(OC)c1C2=O [Griseofulvin]	0.80	0.77	0.12	33.10	30.98	31.06			
NS(=O)(=O)c1cc2c(cc1Cl)NCNS2(=O)=O [Hydrochlorothiazide]	1.05	0.92	-0.13	15.90	13.08	13.04			
COc1ccc2c(c1)c(CC(=O)O)c(C)n2C(=O)c1ccc(Cl)cc1 [Indomethacin]			-0.96	25.30	33.16	32.49	very similar	30.0	
COC(=O)C1=C(C)NC(C)=C(C(=O)OC(C)C)C1c1cccc2nonc12 (centres unmarked) [Isradipine]	3.30	2.9	0.13	40.00	39.16	39.11			
C[C@H]1C[C@@H]2[C@H]([C@@H](O)C[C@@]3(C)[C@H]2CC[C@]3(O)C(=O)CO)[C@@]2(C)C=CC(=O)C=C12 [Methylprednisolone]	0.28	0.76	0.16	32.10	30.77	30.91			
Cc1ncc([N+](=O)[O-])n1CCO [Metronidazole]	0.72	0.66	-0.25	-3.30	-3.24	-2.71			
Nc1cc(N2CCCCC2)nc(N)[n+]1[O-] [Minoxidil]	3.41	3.16	-0.04	19.00	16.08	15.93			
CC(C)(C)NCC(O)COc1cccc2c1CC(O)C(O)C2 (centres unmarked) [Nadolol]	3.55	2.93	-0.33	20.20	19.23	19.89			
C[C@]12C=CC(=O)C=C1CC[C@@H]1[C@@H]2C(=O)C[C@@]2(C)[C@H]1CC[C@]2(O)C(=O)CO [Prednisone]	0.42	0.62	0.05		25.13	25.25			
CC(O)Cn1cnc2c1c(=O)n(C)c(=O)n2C (centres unmarked) [Proxyphylline]	3.02	1.97	-0.85		10.89	10.05			
COc1ccc(NS(=O)(=O)c2ccc(N)cc2)nn1 [Sulfamethoxypyridazine]	4.27	2.33	-0.59		11.16	11.11			
CCN1CCCC1CNC(=O)c1cc(S(N)(=O)=O)ccc1OC (centres unmarked) [Sulpiride]		4.84	0.12	25.50	16.15	15.80			outliers
Cn1cnc2c1c(=O)[nH]c(=O)n2C [Theobromine]		4.68	-0.25		-3.71	-3.16			
